Like-named read-outs stand apart in the source and are kept apart here.
Tests used:
[1] = tested on: HCT 116 −/− cells; test: MTT cell viability assay, HCT 116 p53 −/− cells; conditions: Homo sapiens, HCT-116, 48 h, read-out: Cytotoxic Potency (EC50) HCT −/−
[2] = tested on: polyubiquitin conjugates in RKO-E6 cells; test: Accumulation of polyubiquitin in RKO-E6 cells (immunoblot); format: cell-based, human; conditions: EC80 or 60 μM, 6-24 h
Protocol: (§1) A) Accumulation of polyubiquitin. RKO-E6 cells were treated with DMSO vehicle for 24 h, 37° C., or with the concentrations of test compounds that gave 80% cell death (as determined by cell viability assay at 48 h) for 6, 12, or 24 h, 37° C. […] Schematic depicting p53 degradation via the proteasome pathway in RKO cells versus RKO-E6 cells. The activity of the HPV E6 oncoprotein hastens p53 degradation in RKO-E6 cells. ii. RKO and RKO-E6 cells were treated with vehicle, etoposide (50 μM), MG115 (20 μM), Δ12-PGJ2 (60 μM), NSC-302979 (20 μM, DBA (20 μM), curcumin (60 μM), PGB1 (60 μM), NSC-156236, (60 XM)or DPTP 60 μM for 6 h, 37° C. Lysates were fractionated by SDS-PAGE and their p53 content determined immunochemically. iii. p53 levels were measured by densitometry and the ratio of p53 protein in RKO-E6 cells/RKO cells calculated.
(§2) The medium was removed and cells lysed in 50 mM Tris, pH 7.4, 100 mM NaCl, 2 mM EDTA with 0.1% SDS, 0.1% deoxycholate, 1× complete protease inhibitor mixture. Protein concentration was measured by the Bradford method. Equal portions of the total cell lysate were fractionated from each sample (12.5 μg of protein) by SDS-PAGE. Proteins were transferred to poly(vinylidene difluoride) blocked with 5% (w/v) nonfat dry milk in Trisbuffered saline [20 mM Tris-HCl, pH 7.5, 100 mM sodium chloride, 0.1% (v/v) Tween 20]. Proteins were detected immunochemically by using primary antibodies directed against p53 (1:4000) or ubiquitin (1:1000), followed by horseradish peroxidase-conjugated secondary antibodies (1:4000). Antigen-antibody complexes were detected with enhanced chemiluminescence reagents. Gels were scanned and quantified intensities using Kodak 1D Image Analysis Software.

[3] = tested on: RKO cells; test: MTT cell viability assay, RKO cells; conditions: 48 h
[4] = tested on: HCT 116 +/+ cells; test: MTT cell viability assay, HCT 116 p53 +/+ cells
[5] = tested on: cell lines with Wild type p53; conditions: analysis according to O'Connor et al., 1997; cited from earlier work
[6] = tested on: p53; test: p53 accumulation, ratio RKO-E6 cells/RKO cells (immunoblot, densitometry); format: cell-based, human; conditions: 6 h; etoposide 50 μM, MG115, NSC-302979, DBA 20 μM, others 60 μM
Protocol: as §1, §2

[7] = tested on: RKO-E6 cells; test: MTT cell viability assay, RKO-E6 cells
[8] = tested on: ubiquitin isopeptidases; test: Ubiquitin isopeptidase activity, z-LRGG-AMC substrate, lysates of treated RKO and HCT 116 cells; format: cell-based, human; conditions: cells treated 6, 20 or 60 μM, 12 h
Protocol: RKO (upper) and HCT 116 ^+/+ cells (lower) were treated with DMSO vehicle, 6, 20, or 60 μM of Δ12-PGJ2, DBA, NSC-302979, or curcumin, 60 μM PGB1, 60 μM NSC-156236, or 60 μM DPTP for 12 h at 37° C. Cell lysates (0.5 mg/mL) from each treatment were incubated with the isopeptidase substrate, z-LRGG-AMC, for 3 h, 37° C. The amount of AMC cleaved by isopeptidase was determined fluorometrically, as described in Materials and Methods.
The second assay used a fluorescent tetrapeptide, z-LRGG-AMC, as a substrate that mimics the carboxy-terminus of ubiquitin. Isopeptidase activity hydrolyzes the bond between the c-terminal glycine and the fluorophore. This tetrapeptide also undergoes slow proteolysis by the catalytic subunit of the proteasome. To minimize this background rate of proteolysis cell lysates were incubated with 30 μM MG115 for 30 minutes at 4° C., prior to substrate incubation (>90% proteasome inhibition). Cells were teeated as above, lysed in 250 μL of lysis buffer per sample, and adjusted protein concentration to 0.5 mg/mL prior to incubation with MG115. Next, z-LRGG-AMC substrate was added and fluorescence was quantified of the AMC moiety cleaved by isopeptidase action.

[9] = tested on: ubiquitin isopeptidases; test: Ubiquitin isopeptidase activity, Ub-PEST substrate, lysates of treated RKO and HCT 116 cells; format: cell-based, human; conditions: cells treated 6, 20 or 60 μM, 12 h
Protocol: A) Inhibition of isopeptidase proteolysis of Ub-PEST substrate. RKO and HCT 116 cells were treated with DMSO vehicle, 6, 20, or 60 μM of Δ12-PGJ2, DBA, NSC-302979, or curcumin, 60 μM PGB1, 60 μM NSC-156236, or 60 μM DPTP for 12 h, 37° C. Cell lysates from each treatment were incubated with Ub-PEST, as described in materials and methods. Samples were fractionated by SDS-PAGE and proteins detected with ubiquitin epitopes immunochemically (HCT 116 ^+/+ western blot shown as example of raw data). […] B) Inhibition of isopeptidase activity by test panel compounds. Isopeptidase activity was determined by measuring via densitometry, the amount of Ub generated by isopeptidase cleavage of Ub-PEST. Bar graph patterns are DMSO vehicle (black), Δ12-PGJ2 (hatched), DBA (horizontal lines), NSC-302979 (white), PGB1 (diagonally downward right lines), and NSC-156236 (diagonally downward left lines). The amount of Ub generated in the vehicle treated sample (panel A, lane 2) is arbitrarily designated 100%.
Cellular isopeptidase enzymatic activity was measured with two assays that used different substrates. In one assay ubiquitin-PEST (Ub-PEST) was used, a full-length ubiquitin molecule with an 18 amino acid c-terminal peptide extension (total mass=10.5 kDa). Ubiquitin isopeptidases specifically cleave the 18 amino acid peptide extension, releasing full-length ubiquitin (8.5 kDa).
Briefly, 6×10^5 cells were incubated with 0-60 μM of test compounds for 12 hrs. Cells were lysed in 50 μL of 25 mM HEPES, 5 mM EDTA, 0.1% CHAPS, 5 mM ATP, pH 7.5. The protein concentration of each sample was adjusted to 0.3 mg/mL and incubated with 50 μg/mL Ub-PEST for 45 minutes at 25° C. Under these conditions, Ub-PEST hydrolysis occurs at a linear rate. 20 μL samples were mixed with 20 μL 2× Laemmli buffer, boiled briefly, and fractionated by SDSPAGE. Isopeptidase activity was monitored by determining the amount of product (8.5 kDa ubiquitin) formation.

[10] = tested on: cell lines with mutant/deleted p53; conditions: mean of 41-42 cell lines with mutant/deleted p53; read-out: Mutant p53 Mean LC50; cited from earlier work
[11] = tested on: HCT 116 (p53^−/−); test: MTS cytotoxicity, HCT 116 (p53−/−); format: cell-based; conditions: Homo sapiens, log of EC50 in μM, 48 h, read-out: Log EC50 +/− Standard Error of Log EC50, HCT 116 (p53−/−) (converted)
From the text: (§3) Cytotoxicity in Human Colon Tumor (HCT) Cell Lines. To determine if punaglandins elicit cytotoxicity independently of the tumor-suppressor p53, as do other dienone prostaglandins, several cytotoxicity assays were employed. First, cell death effects of all isolated punaglandins were investigated in pairs of isogenic colon cancer cell lines, the HCT 116^+/+ competent cell line and HCT 116^−/− null cell lines. HCT 116^+/+ cells are homozygous for p53^+/+ and p21^+/+; where as, HCT 116^−/− cells lack both alleles for p53 (p53^−/−) or p21 (p21^−/−).
(§4) Each cell line was seeded simultaneously in 96-well plates and incubated for 24 h before treatment with individual punaglandins at various concentrations for 48 additional h. Cytotoxicity was determined using MTS and absorbances were recorded at 490 nm. Half maximal effective concentrations (EC50) and Log EC50s were calculated from a concentration-response curve generated using GraphPad Prism (Table 1).

[12] = tested on: HCT 116 (p21 wt); test: MTS cytotoxicity, HCT 116 (p21 wt); format: cell-based; conditions: Homo sapiens, log of EC50 in μM, 48 h, read-out: Log EC50 +/− Standard Error of Log EC50, HCT 116 (p21 wt) (converted)
From the text: as §3, §4

[13] = tested on: HCT 116 (p21^−/−); test: MTS cytotoxicity, HCT 116 (p21−/−); format: cell-based; conditions: Homo sapiens, log of EC50 in μM, 48 h, read-out: Log EC50 +/− Standard Error of Log EC50, HCT 116 (p21−/−) (converted)
From the text: as §3, §4

[14] = tested on: ubiquitin isopeptidases; test: In vitro isopeptidase activity in HCT 116 lysates, Ub-PEST; format: biochemical, human; conditions: HCT 116 lysates, 45 min
Protocol: Isopeptidase Assay. It was hypothesized that the punaglandins would inhibit ubiquitin-isopeptidase activity of the proteasome pathway as does the prostaglandin, Δ^12-PGJ2 (1), but with greater potency because of the chlorinated C-10. To validate this theory, cellular isopeptidase enzymatic activity was measured in vitro after treatment with individual punaglandins, PNG 2 (6), PNG 3 (7), and Z-PNG 4 (9) and in vivo after individual treatment with PNG 4 (8) and PNG 6 (10). This activity was determined utilizing the simple isopeptidase substrate, ubiquitin-PEST (Ub-PEST), a full/length ubiquitin (Ub) molecule fused with an 18-amino acid C-terminal peptide extension that most isopeptidases use as a substrate. The polypeptide extension contains regions rich in Pro (P), Glu (E), Ser (S), and Thr (T) residues called PEST motifs that are responsible for rapid degradation of these and other unstable proteins. Ub isopeptidases specifically cleave this peptide extension, yielding free, full-length Ub. Both the fused Ub-PEST (10.5 kDa) and the cleaved, free Ub (8.5 kDa) can be observed via immunochemical detection.
In Vitro Isopeptidase Activity. PNG 2 (6), PNG 3 (7), and Z-PNG 4 (9) were initially analyzed for isopeptidase activity in vitro in HCT 116 lysates. Cells were lysed with isopeptidase activity buffer and protein concentration adjusted to 0.3 mg/mL per sample. Each sample was subsequently incubated with 2 μM, 6 μM, 20 μM, 60 μM, or 200 μM of PNG 2 (6), PNG 3 (7), Z-PNG 4 (9), Δ^12-PGJ2 (1), and PGA1 (2) in addition to 50 μg/ml of Ub-PEST. Negative control cells were treated with vehicle (0.5% DMSO) and equivalent Ub-PEST. […] The amount of fused Ub-PEST and free Ub product was determined by SDS-PAGE fractionation.

[15] = tested on: HCT 116 (p53 wt); test: MTS cytotoxicity, HCT 116 (p53 wt); format: cell-based; conditions: Homo sapiens, 48 h
From the text: as §3, §4

[16] = log of EC50 in μM, read-out: Log EC50 +/− Standard Error of Log EC50, HCT 116 (p53 wt) (converted)

Structure (SMILES): COc1cc(/C=C/C(=O)CC(=O)/C=C/c2ccc(O)c(OC)c2)ccc1O [Curcumin, curcumin]
- EC50 [1]: 8600 ± 1300 nM
- cellular accumulation of polyubiquitin conjugates [2]: protein species with polyubiquitin conjugation accumulated in cells
- cell death in RKO compared with RKO-E6 cells ([3]; MTT, isogenic pair): caused cell death with equal potency and efficacy
- EC50 ([3]; Homo sapiens, RKO, read-out: Cytotoxic Potency (EC50) RKO): 12500 ± 5900 nM
- cell death in HCT 116 +/+ compared with HCT 116 −/− cells ([4]; 48 h, MTT, isogenic pair): caused cell death with equal potency
- EC50 ([4]; Homo sapiens, HCT-116, 48 h, read-out: Cytotoxic Potency (EC50) HCT +/+): 9700 ± 1100 nM
- p53 dependence in NCI 60 cell line cancer screening data [5]: act independently of p53
- ratio of p53 protein [RKO-E6 cells/RKO cells] [6]: approached unity
- EC50 ([7]; Homo sapiens, RKOE6, 48 h, read-out: Cytotoxic Potency (EC50) RKO-E6): 14900 ± 8500 nM
- EC80, concentration that gave 80% cell death ([7]; cell viability assay at 48 h, RKO-E6 cells): 17000 nM
- inhibition of z-LRGG-AMC hydrolysis by ubiquitin isopeptidases [8]: inhibited ubiquitin isopeptidase activity
- inhibition of isopeptidase cleavage of Ub-PEST [9]: inhibited isopeptidase activity in a concentration dependent manner
- CC50 [10]: 68000 nM

Structure (SMILES): CCCCC/C=C\C[C@@]1(O)C=C(Cl)C(=O)/C1=C\[C@H](OC(C)=O)[C@H](CCCC(=O)OC)OC(C)=O [Z-PNG 4]
- EC50 [11]: 0.0269 µM
- EC50 [12]: 0.0295 µM
- EC50 [13]: 0.0324 µM
- concentration at which inhibition of Ub-PEST degradation is initially observed [14]: 20 µM
- concentration of complete (total) inhibition of Ub-PEST degradation [14]: 60 µM
- EC50 ([15]; read-out: EC50, cytotoxicity in HCT 116 cell lines): 0.03 µM
- EC50 [15, 16]: 0.0316 µM

Structure (SMILES): CC/C=C\C/C=C\C[C@@]1(O)C=C(Cl)C(=O)/C1=C/[C@H](OC(C)=O)[C@H](CCCC(=O)OC)OC(C)=O [PNG 3]
- EC50 [11]: 0.372 µM
- EC50 [12]: 0.288 µM
- EC50 [13]: 0.295 µM
- concentration at which inhibition of Ub-PEST degradation is initially observed [14]: 20 µM
- concentration of complete (total) inhibition of Ub-PEST degradation [14]: 60 µM
- EC50 ([15]; average over the three compounds, read-out: average EC50 of PNG 3, PNG 4 and PNG 6, cytotoxicity in HCT 116 cell lines): ~0.35 µM
- EC50 [15, 16]: 0.324 µM

Reference: patent US20060106099A1, “Novel inhibitors of ubiquitin isopeptidases” (priority 2002, published 2006)
